{
  "source": "patent US20060292099A1",
  "about": "“Treatment of eye disorders with sirtuin modulators” (priority 2005, published 2006)",
  "key": {"retinal ganglion cells": {"test_system": "retinal ganglion cells", "conditions": "animals, recent study (glaucoma background); cited from earlier work"}, "[1]": {"test_system": "retinal ganglion cells (RGCs)", "protocol": "(§1) Study outline: The neuroprotective effects of nicotinamide riboside were examined in EAE mice with optic neuritis. […] To induce EAE, mice were immunized several days later with 300 μg PLP emulsified in complete Freund's adjuvant (CFA), and control mice (without EAE) were mock-immunized with phosphate buffered saline (PBS) in CFA. All mice received 200 ng intraperitoneal pertussis toxin (PT) on the day of immunization (day 0) and again on day 2.\n(§2) Eyes were treated with nicotinamide riboside by intravitreal (ivt) injections with a volume of 0.8 μl/injection of a stock solution of either 0.1 M or 0.4 M nicotinamide riboside in PBS (Groups 2, 4 and 5). […] Treament with nicotinamide riboside, as well as PBS control injections, were given ivt on days 0, 4, 7 and 11. Mice were scored daily for clinical EAE, and were sacrificed on day 14 by overdose with ketamine and xylazine.\n(§3) Retinas were dissected and whole-mounted for fluorescent microscopy. RGC numbers were quantified by counting FG-labeled cells in 12 standardized fields in each retina. Optic nerves were dissected and processed for histology. Cut sections stained by H & E were evaluated for the presence of inflammatory cells to determine acute optic neuritis. RGCs were compared between PBS-treated and nicotinamide riboside-treated eyes with optic neuritis to determine whether nicotinamide riboside prevents loss of neurons."}, "[2]": {"test_system": "EAE mice with optic neuritis", "test": "Incidence of optic neuritis (inflammatory cell infiltration of optic nerve) and clinical EAE, nicotinamide riboside", "format": "in vivo, SJL/J mice", "protocol": "as §1, §2, §3"}, "[3]": {"test_system": "retinal ganglion cells (RGCs)", "test": "Retinal ganglion cell (RGC) counts in EAE optic neuritis model, resveratrol intravitreal", "format": "in vivo, SJL/J mice", "conditions": "for RGC numbers: EAE eyes with optic neuritis, 0.8 μl intravitreal days 0, 3, 7, 11, day 14", "protocol": "(§4) The experimental design is diagrammed in FIG. 21.\nThree test doses were diluted:\n(§5) Retinas were diessected and whole-mounted for fluorescent microscopy. […] Optic nerves were dissected and processed for histology. […] RGCs were compared between PBS-treated and resveratrol-treated eyes with optic neuritis to determine whether resveratrol prevents loss of neurons."}, "[4]": {"test": "Measured resveratrol concentration in Captisol solutions and reconstitution of lyophilized product", "format": "physicochemical", "protocol": "Lyophilized vials containing 10% Captisol control vehicle were also manufactured. […] Lyophilized vials containing 40% Captisol control vehicle were also manufactured.\nThe filtered solutions were dispensed into vials (1.0 mL solution into 3 mL vial, Wheaton #223684), and lyophilized. At the end of the lyophilization cycle, the vials were sealed under vacuum and a cap crimped over the septa.\nThe lyophilized resveratrol product was an off-white cake. The material reconstituted in ˜20 seconds after the addition of 1.0 mL water. […] The lyophilized control vehicle product was a white cake. The material reconstituted in ˜20 seconds after the addition of 1.0 mL water. The reconstituted control vehicle was clear, with no visible particulates, and having a pH of 5.82.\nThe solution was stirred for 35 minutes, followed by sonication for 1 hour. The solution was stirred for an additional 50 minutes, followed by sonication for an additional hour. At this point, solid material was still present in the sample. An aliquot was removed for analysis. […] Because the solution appeared cloudy at this time, three portions were separated to try alternate mixing methods. Approximately 200 mL was transferred to a 500 mL volumetric flask and was sonicated for 45 min, approximately 300 mL was vigorously mixed with an overhead mixer for 90 minutes, and approximately 100 mL was homogenized for 25 minutes. None of the three portions appeared clear. […] The portions were combined and were stirred at ambient temperature overnight protected from light. The following morning, using an aseptic technique in the laminar flow hood, the solution was sterile filtered via a Nalgene 90 mm filter unit (Cat# 167-0020; […])."}, "[5]": {"test_system": "EAE mice with optic neuritis", "test": "Clinical EAE score and incidence of optic neuritis, resveratrol intravitreal", "format": "in vivo, SJL/J mice", "conditions": "for Peak EAE Score For Individual Mice: five point scale", "description": "as §4\nMice were scored daily for clinical EAE on a five point scale: no disease=0; partial tail paralysis=0.5; tail paralysis or waddling gait=1.0; partial tail paralysis and waddling gait=1.5; tail paralysis and waddling gait=2.0; partial limb paralysis=2.5; paralysis of one limb=3.0; paralysis of one limb and partial paralysis of another=3.5; paralysis of two limbs=4.0; moribund state=4.5; death=5.0.\nas §5"}, "[6]": {"conditions": "optic nerve, acute optic neuritis in EAE"}},
  "note": "“And” between values parts separate entries of the source, which are not always exact repeats. Equal entries are not always repeated. Where two headings read alike, the source gives them in different places.",
  "data": [
    {"smiles": "N=C(N)NN", "note": "[aminoguanidine]", "values": [
      {"measurement": "loss of retinal ganglion cells", "setting": "retinal ganglion cells", "value": "reduction in the loss of retinal ganglion cells"}
    ]},
    {"smiles": "NC(=O)c1ccc[n+]([C@@H]2O[C@H](CO)[C@@H](O)[C@H]2O)c1", "note": "[nicotinamide riboside]", "values": [
      {"measurement": "Toxicity to RGCs", "setting": "[1]; mouse, in vivo", "value": "not toxic"},
      {"measurement": "RGC numbers vs control eyes", "setting": "[1]; non-EAE eyes treated with nicotinamide riboside (Group 2) vs control eyes (Group 1)", "value": "no difference"},
      {"measurement": "Incidence of optic neuritis and clinical EAE vs controls", "setting": "[2]; nicotinamide riboside treated mice vs controls", "value": "did not differ"},
      {"measurement": "Inflammatory cell infiltration", "setting": "[2]; [6]", "value": "does not prevent"}
    ]},
    {"smiles": "Oc1ccc(/C=C/c2cc(O)cc(O)c2)cc1", "note": "[resveratrol, 3,5,4′-Trihydroxy-trans-stilbene]", "values": [
      {"measurement": "RGC numbers", "setting": "[3]; 38 μM resveratrol", "value": "452±136", "unit": "RGCs"},
      {"measurement": "RGC numbers", "setting": "[3]; 77 μM resveratrol", "value": "585±198", "unit": "RGCs"},
      {"measurement": "RGC numbers", "setting": "[3]; 600 μM resveratrol", "value": "644±148", "unit": "RGCs"},
      {"measurement": "Toxicity to RGCs", "setting": "[3]; mouse, in vivo", "value": "not toxic"},
      {"measurement": "RGC numbers vs control eyes", "setting": "[3]; non-EAE eyes treated with resveratrol vs control eyes", "value": "no difference"},
      {"measurement": "concentration of resveratrol in solution", "setting": "[4]; 10% Captisol lyophilisate reconstituted with 1.0 mL water, pH 5.91", "value": 14400, "unit": "µM"},
      {"measurement": "concentration of resveratrol in solution", "setting": "[4]; 10% Captisol, after 0.20 μm filtration, pH 4.83", "value": 14900, "unit": "µM"},
      {"measurement": "concentration of resveratrol in solution", "setting": "[4]; 10% Captisol, mixed 1 hour at ambient temperature, initial solution, pH 5.02 (target 20 mM)", "value": 15400, "unit": "µM"},
      {"measurement": "concentration of resveratrol in solution (HPLC)", "setting": "[4]; 40% Captisol, after stirring and sonication, solid still present, pH 4.76 (target 175 mM)", "value": 55000, "unit": "µM"},
      {"measurement": "concentration of resveratrol in solution", "setting": "[4]; 40% Captisol, portion homogenized for 25 minutes", "value": 74000, "unit": "µM"},
      {"measurement": "concentration of resveratrol in solution", "setting": "[4]; 40% Captisol, stirred overnight at ambient temperature, sterile filtered", "value": 168000, "unit": "µM"},
      {"measurement": "Peak EAE Score For Individual Mice", "setting": "[5]; Control (non-EAE) mice, 38 μM resveratrol intravitreal", "value": 0},
      {"measurement": "Peak EAE Score For Individual Mice", "setting": "[5]; Control (non-EAE) mice, 600 μM resveratrol intravitreal", "value": 0},
      {"measurement": "Peak EAE Score For Individual Mice", "setting": "[5]; EAE mice, 38 μM resveratrol intravitreal", "value": "1.5 and 3 (2×) and 0 and 5 and 2.5 and 1 (2×)"},
      {"measurement": "Peak EAE Score For Individual Mice", "setting": "[5]; EAE mice, 77 μM resveratrol intravitreal", "value": "2 (4×) and 2.5 (3×) and 0 and 3.5 and 5 and 1.5"},
      {"measurement": "Peak EAE Score For Individual Mice", "setting": "[5]; EAE mice, 600 μM resveratrol intravitreal", "value": "2.5 and 2 (2×) and 5 and 4.5 and 1.5 and 0.5"},
      {"measurement": "Inflammatory cell infiltration", "setting": "[5]; [6]", "value": "does not prevent"},
      {"measurement": "Incidence of optic neuritis and clinical EAE vs controls", "setting": "[5]; resveratrol treated mice vs controls", "value": "did not differ"}
    ]}
  ]
}
